According to US5681826A, “Saccharide composition with reduced reducibility, and preparation and uses thereof” (Kabushiki Kaisha Hayashibara Seibutsu Kagaku Kenkyujo, priority 1994, dated 1997):
Each block holds one compound with its values, some of them ahead of it.

Assays:
α-amylase = assay: Hydrolysis by α-amylase derived from pig pancreas; type: in vitro ADME
Description: (§1) The enzymatic reaction with the α-amylase was as follows: Dissolve 10 mg of a substrate in one ml of 50 mM phosphate buffer (pH 6.9), mix the resultant solution with one unit of the α-amylase, and incubate the resultant mixture at 37° C. for 18 hours. The enzymatic reaction with the α-glucosidase was conducted under the same conditions as in the case of α-amylase except that 50 mM acetate buffer (pH 4.0) was used as a buffer. The enzymatic reaction using the rat intestinal acetone powder was carried out under the same conditions as in the case of α-amylase except that 50 mM maleate buffer (pH 6.0) was used as a buffer. The saccharide compositions obtained by the α-amylase, α-glucosidase and rat intestinal acetone powder are respectively in Tables 6, 7 and 8.

β-amylase = assay: Hydrolysis by β-amylase; type: biochemical
glucoamylase = assay: Enzymatic hydrolysis by glucoamylase; type: biochemical
Description: Fifty mg aliquots of non-reducing saccharide preparations P I, P II, P III, P IV and P V in Experiment 4 were respectively dissolved in one ml of 50 mM acetate buffer (pH 4.5), admixed with one unit of glucoamylase commercialized by Seikagaku-Kogyo Co., Ltd., Tokyo, Japan, to effect enzymatic hydrolysis at 40° C. for 6 hours. HPLC analysis only detected glucose and trehalose in all resultant mixtures. The percentages and the molecular ratios of glucose to trehalose in each saccharide are in Table 5.

[1] = Maillard reaction with glycine, absorbance at 480 nm; type: physicochemical; conditions: for Coloration degree (480 nm): one % glycine, 10% saccharide, pH 7.0, 100°C., 90 min, 1-cm cell
Description: A solution, containing one % glycine and 10% of a saccharide preparation PI, P II, P III, P IV or P V in Experiment 4 and 50 mM phosphate buffer (pH 7.0), was kept at 100° C. for 90 min, followed by cooling the resultant solution, and determining for absorbance at a wave length of 480 nm in a 1-cm cell. As a control, maltotriose, maltotetraose, maltopentaose, maltohexaose and maltoheptaose, as a material for the saccharide preparations, were similarly treated as above, and measured for absorbance at a wave length of 480 nm.
A solution, containing one % of glycine, 10% of a high-purity trehalose preparation with a purity of 99.5%, d.s.b., obtained by the method in Experiment 17, and 50 mM phosphate buffer (pH 7.0), was kept at 100° C. for 90 min, followed by cooling the resultant solution and determining the absorbance at a wave length of 480 nm in a 1-cm cell. As a control, glucose and maltose were similarly treated as above, and the resultants were determined for absorbance at a wave length of 480 nm.

[2] = biological target: T1, trehalose-releasing enzyme (Rhizobium sp. M-11, UniProt Q53238); assay: Action of trehalose-releasing enzyme on α-glycosyltrehalose and maltooligosaccharides (Table 13); type: biochemical; conditions: 20% substrate, 2 units/g, 40°C., pH 7.0, 48 hours; label = substrate
T1 construct: M-11 culture
T1 sequence (Q53238 1-596): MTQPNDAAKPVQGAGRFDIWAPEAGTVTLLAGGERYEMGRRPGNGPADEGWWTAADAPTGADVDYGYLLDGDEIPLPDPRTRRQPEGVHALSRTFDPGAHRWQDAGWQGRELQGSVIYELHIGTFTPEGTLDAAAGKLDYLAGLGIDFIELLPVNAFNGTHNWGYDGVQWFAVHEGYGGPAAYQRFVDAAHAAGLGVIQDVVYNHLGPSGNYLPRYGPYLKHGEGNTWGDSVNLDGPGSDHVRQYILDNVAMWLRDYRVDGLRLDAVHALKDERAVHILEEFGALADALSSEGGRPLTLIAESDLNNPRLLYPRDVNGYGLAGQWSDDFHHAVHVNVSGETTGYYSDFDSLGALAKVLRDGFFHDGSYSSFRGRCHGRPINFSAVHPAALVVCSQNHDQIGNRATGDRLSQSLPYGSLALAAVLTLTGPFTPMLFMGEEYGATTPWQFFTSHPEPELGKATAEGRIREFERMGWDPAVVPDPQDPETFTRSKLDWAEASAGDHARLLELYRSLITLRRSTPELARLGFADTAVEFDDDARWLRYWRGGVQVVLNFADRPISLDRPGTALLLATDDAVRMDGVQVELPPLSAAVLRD
Description: An aqueous solution containing 20%, d.s.b., of one of the above 5 non-reducing saccharide preparations, namely α-glycosyltrehalose preparations, was prepared, followed by mixing it with 2 units/g substrate, d.s.b., of the purified trehalose-releasing enzyme obtained in Experiment 15, and subjecting the resultant to an enzymatic reaction at 40° C. and pH 7.0 for 48 hours. The resultant each reaction mixture was desalted, and analyzed for saccharide composition on HPLC using "WAKOBEADS WB-T-330 column", a column of Wako Pure Chemical Industries Ltd., Tokyo, Japan. As a control, a fresh preparation of the same trehalose-releasing enzyme was allowed to act on maltotriose, maltotetraose, maltopentaose, maltohexaose or maltoheptaose, and the resultant each reaction mixture was analyzed for saccharide composition on HPLC.

[3] = Reducing power on the Somogyi-Nelson's method expressed by DE; type: physicochemical; conditions: d.s.b.
Description: The reducing powders of these novel high-purity saccharides were determined on the Somogyi-Nelson's method and expressed by DE.

mice = assay: Acute toxicity test (Experiment 8); conditions: oral, highest possible doses
From the text: (§2) By using 7-week old dd-strain mice, the non-reducing saccharide preparation P I, P II, P III, P IV or P V was orally administered to the mice for acute toxicity test.

[4] = Acute toxicity test (Experiment 8); conditions: mouse, in vivo, po
From the text: as §2

α-glucosidase = assay: Hydrolysis by α-glucosidase derived from rice; type: biochemical; conditions: pH 4.0, 37°C., 18 hours
Description: as §1

[5] = Hydrolysis by rat intestinal acetone powder; type: in vitro ADME; conditions: pH 6.0, 37°C., 18 hours
Description: as §1

[6] = system: non-reducing saccharide-forming enzyme; type: biochemical, Rhizobium sp. M-11; conditions: for Percentage of remaining substrate on HPLC: non-reducing saccharide-forming enzyme, 48 h, pH 7; for Percentage of newly formed product (P I to P V) on HPLC: 20 w/v % substrate, 2 units/g, 40°C., pH 7.0, 48 hours, label = substrate
Description: An aqueous solution containing 20 w/v % glucose, maltose, maltotriose, maltotetraose, maltopentaose, maltohexaose or maltoheptaose as a substrate was prepared, and mixed with 2 units/g substrate, d.s.b., of the purified enzyme preparation obtained in Experiment 2, and the resultant mixture was subjected to an enzymatic reaction at 40° C. and pH 7.0 for 48 hours. The reaction mixture was desalted and analyzed on high-performance liquid chromatography (HPLC) using "WAKOBEADS WB-T-330 COLUMN", a product of Wako Pure Chemical Industries Ltd., Tokyo, Japan. The HPLC procedure was conducted at ambient temperature and a flow rate of 0.5 ml/min of water as an eluent, and "RI-8012", a differential refractometer commercialized by Tosho Corporation, Tokyo, Japan, was used for analyzing reaction products.

[7] = one unit, pH 6.9, 37°C., 18 hours
[8] = one unit glucoamylase, pH 4.5, 40°C., 6 hours

Compound: OC[C@H]1O[C@H](O[C@H]2O[C@H](CO)[C@@H](O[C@H]3O[C@H](CO)[C@@H](O)[C@H](O)[C@H]3O)[C@H](O)[C@H]2O)[C@H](O)[C@@H](O)[C@@H]1O [P I, α-glucosyltrehalose]
- Hydrolysis by α-amylase (α-amylase): not substantially hydrolyzed
- Saccharide composition of hydrolysate by α-amylase: G1 (glucose) (α-amylase; [7]): 0
- Saccharide composition of hydrolysate by α-amylase: G2 (maltose) (α-amylase; [7]): 0.4
- Saccharide composition of hydrolysate by α-amylase: G3 (maltotriose) (α-amylase; [7]): 2.3
- Saccharide composition of hydrolysate by α-amylase: P I (α-amylase; [7]): 97.3
- Saccharide composition of hydrolysate by α-amylase: P II (α-amylase; [7]): 0
- Hydrolysis by β-amylase (β-amylase): not hydrolyzed
- Hydrolysis by glucoamylase (glucoamylase): hydrolyzed into one glucose molecule and one trehalose molecule
- Glucose (glucoamylase; [8]): 36.2%
- Molecular ratio (Glucose/Trehalose) (glucoamylase; [8]): 1.07
- Trehalose (glucoamylase; [8]): 63.8%
- Coloration degree relative to corresponding material maltooligosaccharides [1]: 3-6%
- Coloration degree (480 nm) [1]: 0.027
- Percentage of reducing saccharide released (glucose, maltose, maltotriose, maltotetraose or maltopentaose) [2]: 6.5%
- Percentage of trehalose released [2]: 17.5%
- DE (reducing power) [3]: 0.83
- Mortality (mice): no mouse died
- LD50 [4]: ≥ 50000 mg/kg
- Saccharide composition of hydrolysate by α-glucosidase: Glucose (α-glucosidase): 36.5%
- Saccharide composition of hydrolysate by α-glucosidase: Other saccharides (α-glucosidase): 0.5%
- Saccharide composition of hydrolysate by α-glucosidase: Trehalose (α-glucosidase): 63.0%
- Saccharide composition of hydrolysate by rat intestinal acetone powder: Glucose [5]: 37.2%
- Saccharide composition of hydrolysate by rat intestinal acetone powder: Other saccharides [5]: 0.4%
- Saccharide composition of hydrolysate by rat intestinal acetone powder: Trehalose [5]: 62.4%

Compound: OC[C@H]1O[C@H](O[C@H]2[C@H](O)[C@@H](O)C(O)O[C@@H]2CO)[C@H](O)[C@@H](O)[C@@H]1O (mixture of isomers) [Maltose]
- Formation of saccharide from substrate [6]: no saccharide is formed
- Percentage of remaining substrate on HPLC [6]: 100.0%
- Coloration degree (480 nm) [1]: 0.926

Compound: OC[C@H]1OC(O)[C@H](O)[C@@H](O)[C@@H]1O (stereo partly drawn) [Glucose]
- Formation of saccharide from substrate [6]: no saccharide is formed
- Percentage of remaining substrate on HPLC [6]: 100.0%
- Coloration degree (480 nm) [1]: 1.671

Next, values leading:

- Percentage of newly formed product (P I to P V) on HPLC [6]: 85.6%
- Percentage of remaining substrate on HPLC [6]: 14.4%
- Coloration degree (480 nm) [1]: 0.475
Compound: OC[C@H]1O[C@H](O[C@H]2[C@H](O)[C@@H](O)[C@@H](O[C@H]3[C@H](O)[C@@H](O)[C@@H](O[C@H]4[C@H](O)[C@@H](O)C(O)O[C@@H]4CO)O[C@@H]3CO)O[C@@H]2CO)[C@H](O)[C@@H](O)[C@@H]1O (stereo partly drawn) [Maltotetraose]

- Percentage of newly formed product (P I to P V) on HPLC [6]: 35.0%
- Percentage of remaining substrate on HPLC [6]: 65.0%
- Coloration degree (480 nm) [1]: 0.623
Compound: OC[C@H]1O[C@H](O[C@H]2[C@H](O)[C@@H](O)[C@@H](O[C@H]3[C@H](O)[C@@H](O)C(O)O[C@@H]3CO)O[C@@H]2CO)[C@H](O)[C@@H](O)[C@@H]1O (stereo partly drawn) [Maltotriose]

- Percentage of newly formed product (P I to P V) on HPLC [6]: 93.4%
- Percentage of remaining substrate on HPLC [6]: 6.7%
- Coloration degree (480 nm) [1]: 0.271
Compound: OC[C@H]1O[C@H](O[C@H]2[C@H](O)[C@@H](O)[C@@H](O[C@H]3[C@H](O)[C@@H](O)[C@@H](O[C@H]4[C@H](O)[C@@H](O)[C@@H](O[C@H]5[C@H](O)[C@@H](O)[C@@H](O[C@H]6[C@H](O)[C@@H](O)[C@@H](O[C@H]7[C@H](O)[C@@H](O)C(O)O[C@@H]7CO)O[C@@H]6CO)O[C@@H]5CO)O[C@@H]4CO)O[C@@H]3CO)O[C@@H]2CO)[C@H](O)[C@@H](O)[C@@H]1O (stereo partly drawn) [Maltoheptaose]

- Percentage of newly formed product (P I to P V) on HPLC [6]: 92.7%
- Percentage of remaining substrate on HPLC [6]: 7.3%
- Coloration degree (480 nm) [1]: 0.369
Compound: OC[C@H]1O[C@H](O[C@H]2[C@H](O)[C@@H](O)[C@@H](O[C@H]3[C@H](O)[C@@H](O)[C@@H](O[C@H]4[C@H](O)[C@@H](O)[C@@H](O[C@H]5[C@H](O)[C@@H](O)C(O)O[C@@H]5CO)O[C@@H]4CO)O[C@@H]3CO)O[C@@H]2CO)[C@H](O)[C@@H](O)[C@@H]1O (stereo partly drawn) [Maltopentaose]

- Percentage of newly formed product (P I to P V) on HPLC [6]: 93.5%
- Percentage of remaining substrate on HPLC [6]: 6.5%
- Coloration degree (480 nm) [1]: 0.318
Compound: OC[C@H]1O[C@H](O[C@H]2[C@H](O)[C@@H](O)[C@@H](O[C@H]3[C@H](O)[C@@H](O)[C@@H](O[C@H]4[C@H](O)[C@@H](O)[C@@H](O[C@H]5[C@H](O)[C@@H](O)[C@@H](O[C@H]6[C@H](O)[C@@H](O)C(O)O[C@@H]6CO)O[C@@H]5CO)O[C@@H]4CO)O[C@@H]3CO)O[C@@H]2CO)[C@H](O)[C@@H](O)[C@@H]1O (stereo partly drawn) [Maltohexaose]
